Data set [1] relates to Wnt target genes, Axin2 and c-Myc. As to the kind of experiment: Western blot of Wnt target proteins in LS174 CRC cells. In kind it is cell-based. The method, then: Western blot. Western blots were performed using the following antibodies: β-catenin (Sigma, C2206), c-Myc (Epitomics, 1472-1), Axin2 (Cell Signaling, 2151), β-Actin (Sigma, A1978), TCF4 (Epitomics, 2114-1) and pygopus2 (Santa Cruz, sc-74878), Cyclin D1 (Cell signaling, 2926).
Cyclin B1 levels were decreased, whereas p21^WAF1/CIP1 levels increased, consistent with the fact that p21^WAF1/CIP1 expression is repressed by c-Myc. β-catenin levels were not affected by resveratrol. Next, the mRNA levels of β-catenin target genes were analyzed using RT-PCR. Expression of survivin, Lgr5, CD44, and c-Myc were decreased in resveratrol-treated cells.
A panel of stilbene analogs was designed and synthesized (FIGS. 2, 3, 5A and 6A). […] However, the solubility of 4d was poor and it was not effective below 10 μM concentrations (data not shown). To improve its solubility and activity, compound 4d was modified with 2′-fluoro 4e, 3′-fluoro 4f and 4′-fluoro 4g substituents (FIG. 5D). Both compounds 4e and 4f had good activity at 10 μM, (E)-4-(2-fluorostyryl)-N,N-dimethylaniline.
(§1) Western blot and cell proliferation assay. The activity of fluorinated N,N-dialkylaminostilbenes (FIDAS or FIDAS agents) on Wnt signaling activity in cancer cells were analyzed by Western blot with antibodies against Wnt target genes, such as c-Myc, Axin2. The effects of FlDAS agents on cancer cell growth were analyzed using Cell Viability Analyzer (Beckman Coulter, Vi-Cell XR). These assays have been described previously (see Zhang et al., J. of Med. Chem. 54, 1288-1297 (2011)).
(In general: Immunoblotting shows a protein as a band on a membrane.)

Another data set concerns LS174 CRC cells. As to the kind of experiment: CRC cell proliferation assay (Vi-Cell). In kind it is cell-based. As to conditions: for colon cancer cell proliferation, effectiveness versus resveratrol and 4r: FIG. 14. Here is the method: Luciferase and cell proliferation assay. HEK293T cells were transiently transfected in a 12-well plate with 0.2 μg of the Super8xTOPFlash reporter and 0.05 μg of Renilla luciferase reporter. Culture medium was changed after 12 h. After 6 h, cells were treated with DMSO or Wnt inhibitors for 12 h, and then treated with 25 mM LiCl or Wnt conditioned medium. After 12 h, cells were harvested and luciferase activity measured by Dual-luciferase Reporter Assay System (Promega, Madison Wis.). All conditions were done in triplicate and each experiment was carried out at least two times. For cell proliferation assay, CRC cells were treated with DMSO or inhibitors for 2d and 4d. The cell numbers and viability were analyzed by Vi-Cell Cell Viability Analyzer.
as §1

Another data set has as its system liver cancer cells. As to the kind of experiment: Liver cancer cell proliferation. As to conditions: FIG. 15. Format: cell-based. Here is the method: as §1
As previously shown, several metabolites of the halogenated stilbenes of the present disclosure were synthesized (Example 2 and FIG. 3). In this study, the effects of some of these metabolites on cell proliferation were studied.

For a further data set, the system named is Wnt signaling. As to the kind of experiment: TopFlash luciferase reporter assay in HEK293T cells. Format: cell-based. Here is the method:
Luciferase and cell proliferation assay. HEK293T cells were transiently transfected in a 12-well plate with 0.2 μg of the Super8xTOPFlash reporter and 0.05 μg of Renilla luciferase reporter. Culture medium was changed after 12 h. After 6 h, cells were treated with DMSO or Wnt inhibitors for 12 h, and then treated with 25 mM LiCl or Wnt conditioned medium. After 12 h, cells were harvested and luciferase activity measured by Dual-luciferase Reporter Assay System (Promega, Madison Wis.). All conditions were done in triplicate and each experiment was carried out at least two times. For cell proliferation assay, CRC cells were treated with DMSO or inhibitors for 2d and 4d. The cell numbers and viability were analyzed by Vi-Cell Cell Viability Analyzer. To identify Wnt pathway inhibitors for CRC prevention and treatment, a number of anti-cancer agents from plants were screened using the TopFlash reporter assay. The TopFlash reporter was transfected into HEK293T cells, and the cells were treated with Wnt3A-conditioned medium in order to activate the luciferase reporter. […] To determine if resveratrol regulates β-catenin degradation, the cells were treated with 25 mM LiCl, which inhibits GSK-3 and stabilizes β-catenin. In this assay, LiCl activated the reporter more strongly than Wnt3A conditioned medium. […] Emodin is an anti-cancer agent from plants; it exists in many unpurified resveratrol products. Emodin had no effect on Wnt signaling. See Zhang et al., J. of Med. Chem. 54, 1288-1297 (2011).
(Reporter assays use an easily measured gene product as a stand-in for the process of interest.)

“Also recorded” adds a separate entry of the source.

Consider `Nc1ccc(C=Cc2ccccc2)cc1` [4c, 4-aminostilbene, reference compound], for which, in data set [1] (30 μM, CRC cells), the “repression of Wnt target genes at 30 μM” value is on record as “represses Wnt target genes”.
As a reminder, the melting point is the temperature of the solid-liquid transition. Consider `CCN(CC)c1ccc(/C=C/c2c(F)cccc2F)cc1` [4s, (E)-4-(2,6-Difluorostyryl)-N,N-diethylaniline], for which the melting point was 70 to 71 °C. Moreover, the “Wnt inhibitory activity in Western blot, qualitative or relative to a comparator” value in data set [1] (CRC cells) is reported as “slightly less active than compound 4r; also recorded: active Wnt inhibitor”.
Molecule `C[N+](C)([O-])c1ccc(/C=C/c2c(F)cccc2Cl)cc1` [4aa, (E)-4-(2-chloro-6-fluorostyryl)-N,N-dimethylaniline oxide] displayed a melting point of 82 to 84 °C. For the same molecule, the “colon cancer cell proliferation, effectiveness versus resveratrol and 4r” value with LS174 CRC cells was “significantly more effective than resveratrol, as well as compound 4r”. Moreover, the “liver cancer cell proliferation, effectiveness versus resveratrol and 4r” value in the data set with liver cancer cells is listed as “significantly more effective than resveratrol, as well as compound 4r”.
The molecule `CN(C)c1ccc(/C=C/c2c(Cl)cccc2Cl)cc1` [4y, (E)-4-(2,6-dichlorostyryl)-N,N-dimethylaniline] returned a melting point of 96 to 97 °C.
The same measure, in the same setting: in the case of `C[N+](C)([O-])c1ccc(/C=C/c2c(F)cccc2F)cc1` [4z, (E)-4-(2,6-difluorostyryl)-N,N-dimethylaniline oxide] it was 100 to 103 °C.
`CN(C)c1ccc(/C=C/c2cccc(F)c2)cc1` [4f, (E)-4-(3-Fluorostyryl)-N,N-dimethylaniline] yielded a melting point of 147 to 148 °C. Moreover, the “repression of Wnt target genes at 10 μM” value in data set [1] (CRC cells) is reported as “good activity”.
The molecule `CN(C)c1ccc(/C=C/c2ccccc2F)cc1` [4e, (E)-4-(2-Fluorostyryl)-N,N-dimethylaniline] had a melting point of 124 to 126 °C. Moreover, in data set [1] (CRC cells), the “repression of Wnt target genes at 10 μM” value is “good activity” and the “Wnt inhibitory activity in Western blot, qualitative or relative to a comparator” value is recorded as “best among all of the monofluoro-substituted compounds”. For the same molecule, in the data set with LS174 CRC cells (cell proliferation assay), the “CRC cell growth inhibition compared with other compounds” value is “significantly better inhibitor”.
Take `Cc1cc(O)c2c(c1)C(=O)c1cc(O)cc(O)c1C2=O` [Emodin]: the “effect on Wnt signaling” value with Wnt signaling is “no effect”.
`CN(C)c1ccc(/C=C/c2ccc(F)c(F)c2)cc1` [4t, (E)-4-(3,4-Difluorostyryl)-N,N-dimethylaniline]: the melting point fell in the range of 159 to 160 °C.
In the case of `Fc1ccccc1/C=C/c1ccc(N(c2ccccc2)c2ccccc2)cc1` [4i, (E)-4-(2-Fluorostyryl)-N,N-diphenylaniline], the melting point lay in the range of 114 to 115 °C. Further, the “repression of Wnt target genes at 10 μM” value in data set [1] (CRC cells) is “inactive”.
`CN(C)c1ccc(/C=C/c2ccccc2F)c2ccccc12` [4k, (E)-4-(2-Fluorostyryl)-N,N-dimethylnaphthalen-1-amine] came in with a melting point of 56 to 58 °C.
The same measure, in the same setting: to `COc1ccc(/C=C/c2ccccc2)cc1` [4b, (E)-4-Methoxystilbene] belongs 136 to 137 °C; to `CN1CCN(c2ccc(/C=C/c3ccccc3F)cc2)CC1` [4j, (E)-1-(4-(2-Fluorostyryl)phenyl)-4-methylpiperazine], 142 to 144 °C; to `CN(C)c1ccc(/C=C/c2cc(F)cc(F)c2)cc1` [4u, (E)-4-(3,5-Difluorostyryl)-N,N-dimethylaniline], 136 to 137 °C.
The same measure, in the same setting: in the case of `C[N+](C)([O-])c1ccc(/C=C/c2c(Cl)cccc2Cl)cc1` [4bb, (E)-4-(2,6-dichlorostyryl)-N,N-dimethylaniline oxide] it was 80 to 82 °C.
Molecule `CN(C)c1ccc(/C=C/c2cccc(F)c2F)cc1` [4m, (E)-4-(2,3-Difluorostyryl)-N,N-dimethylaniline] showed a melting point of 132 to 133 °C. Besides, in data set [1] (CRC cells), the “repression of Wnt target genes at 10 μM” value was “repress Wnt target genes” and the “Wnt inhibitory activity in Western blot, qualitative or relative to a comparator” value is “more active than compound 4e”.
`CN(C)c1ccc(/C=C/c2c(F)cccc2Cl)cc1` [4x, (E)-4-(2-chloro-6-fluorostyryl)-N,N-dimethylaniline] came in with a melting point of 42 to 44 °C.
For `CN(C)c1cccc(/C=C/c2c(F)cccc2F)c1` [4q, (E)-3-(2,6-Difluorostyryl)-N,N-dimethylaniline], the melting point lay within 69 to 71 °C. Also, the “Wnt inhibitory activity in Western blot, qualitative or relative to a comparator” value in data set [1] (CRC cells) is “not as active as compound 4r”.
On to `CN(C)c1ccccc1/C=C/c1c(F)cccc1F` [4p, (E)-2-(2,6-Difluorostyryl)-N,N-dimethylaniline], for which the “Wnt inhibitory activity in Western blot, qualitative or relative to a comparator” value in data set [1] (CRC cells) is “not as active as compound 4r”.
`CN(C)c1ccc(CCc2c(F)cccc2F)cc1` [5r, (E)-4-(2,6-Difluorophenethyl)-N,N-dimethylaniline]: the “Wnt inhibitory activity in Western blot, qualitative or relative to a comparator” value in data set [1] (CRC cells) is “the activity was lost”.
The molecule `CN(C)c1ccc(/C=C/c2c(F)cc(F)cc2F)cc1` [4w, (E)-N,N-Dimethyl-4-(2,4,6-trifluorostyryl)aniline] came in with a melting point of 127 to 128 °C. Also, in data set [1] (CRC cells), the “repression of Wnt target genes at 10 μM” value is given as “active” and the “Wnt inhibitory activity in Western blot, qualitative or relative to a comparator” value was “no significant improvements over compound 4r”.
As for `Oc1ccc(/C=C\c2cc(O)cc(O)c2)cc1` [cis- or (Z)-resveratrol, reference compound], the “protein levels of c-Myc and Cyclin D1” value in data set [1] (LS174 CRC cells) is given as “reduced by resveratrol but not its isomer”.
`CN(C)c1ccc(/C=C/c2ccc(F)cc2F)cc1` [4n, (E)-4-(2,4-Difluorostyryl)-N,N-dimethylaniline]: the melting point was 139 to 140 °C.
With `CCN(CC)c1ccc(/C=C/c2ccccc2F)cc1` [4h, (E)-4-(2-Fluorostyryl)-N,N-diethylaniline], the melting point lay within 78 to 79 °C. Besides, in data set [1] (CRC cells), the “repression of Wnt target genes at 10 μM” value is “active” and the “Wnt inhibitory activity in Western blot, qualitative or relative to a comparator” value is on record as “not as potent as compound 4e”.
The matching figures for `CN(C)c1ccc(/C=C/c2cc(F)ccc2F)cc1` [4o, (E)-4-(2,5-Difluorostyryl)-N,N-dimethylaniline]: 146 to 147 °C, “repress Wnt target genes” and “more active than compound 4e”.
Consider `CNc1ccc(C=Cc2c(Cl)cccc2Cl)cc1` [4ee, (E and Z)-4-(2,6-dichlorostyryl)-N-methylaniline], for which the “colon cancer cell proliferation, effectiveness versus resveratrol and 4r” value in the data set with LS174 CRC cells is listed as “significantly more effective than resveratrol, as well as compound 4r”. In addition, the “liver cancer cell proliferation, effectiveness versus resveratrol and 4r” value in the data set with liver cancer cells is “significantly more effective than resveratrol, as well as compound 4r”.
The molecule `CN(C)c1ccc(/C=C/c2ccc(F)cc2)cc1` [4g, (E)-4-(4-Fluorostyryl)-N,N-dimethylaniline] had a melting point of 197 to 198 °C.
The molecule `CN(C)c1ccc(/C=C/c2c(F)ccc(F)c2F)cc1` [4v, (E)-N,N-Dimethyl-4-(2,3,6-trifluorostyryl)aniline] had a melting point of 91 to 92 °C. For the same molecule, in data set [1] (CRC cells), the “repression of Wnt target genes at 10 μM” value is given as “active” and the “Wnt inhibitory activity in Western blot, qualitative or relative to a comparator” value is listed as “no significant improvements over compound 4r”.

(Values after patent publication US8664276B2, “Stilbene analogs and methods of treating cancer” (University of Kentucky Research Foundation, priority 2011, dated 2014).)
